Source: patent publication US20130244999A1, “Substituted Heterocyclic Compounds” (Incyte Corporation, priority 2008, published 2013)

What follows are molecules tested against T1, histamine H4 receptor (Homo sapiens, UniProt Q9H3N8) (assay: Inhibition of histamine H4 receptor (Table A1; H4 membrane binding assay)). Conditions: histamine H4 receptor; "> a" = exceeds experiment limit.
T1 construct: expressed in transfected cells; host or cells: HEK293SFM cells (membrane preparation)
Procedure, shortened: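 Radioligand binding was measured by filtration through PEI-treated GF/B filters with scintillation counting, using 1000× unlabeled ligand to define nonspecific binding. Membranes were prepared from HEK293SFM cells recombinantly expressing human H4 in ice-cold 50 mM Tris-HCl, pH 7.5, plus protease inhibitors.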

IC50 [nM] | Compound
22.5 | CC1Cc2ccc(C3CCN(C(=O)C4CC4)CC3)cc2CN1c1cc(N2CCN(C)CC2)nc(N)n1 (stereo not shown) [Example 150, 4-[7-[1-(Cyclopropylcarbonyl)piperidin-4-yl]-3-methyl-3,4-dihydroisoquinolin-2(1H)-yl]-6-(4-methylpiperazin-1-yl)pyrimidin-2-amine]
42.1 | CNC(=O)N1CCC(c2ccc3c(c2)CN(c2cc(N4CCN(C)CC4)nc(N)n2)C(C)C3)CC1 (stereo not shown) [Example 151, 4-{2-[2-Amino-6-(4-methylpiperazin-1-yl)pyrimidin-4-yl]-3-methyl-1,2,3,4-tetrahydroisoquinolin-7-yl}-N-methylpiperidine-1-carboxamide]
17.6 | CCS(=O)(=O)N1CCC(c2ccc3c(c2)CN(c2cc(N4CCN(C)CC4)nc(N)n2)C(C)C3)CC1 (stereo not shown) [Example 152, 4-[7-[1-(Ethylsulfonyl)piperidin-4-yl]-3-methyl-3,4-dihydroisoquinolin-2(1H)-yl]-6-(4-methylpiperazin-1-yl)pyrimidin-2-amine]
27 | CC1Cc2ccc(-c3ccnc(C(=O)N4CC(O)C4)c3)cc2CN1c1cc(N2CCN(C)CC2)nc(N)n1 (stereo not shown) [Example 153, 1-[(4-{2-[2-Amino-6-(4-methylpiperazin-1-yl)pyrimidin-4-yl]-3-methyl-1,2,3,4-tetrahydroisoquinolin-7-yl}pyridin-2-yl)carbonyl]azetidin-3-ol]
